Values quoted from earlier work, collected in US20210187081A1, “FORMULATIONS AND DOSES OF PEGYLATED URICASE” (Selecta Biosciences, Inc., priority 2019, published 2021).
Like-named read-outs stand apart in the source and are kept apart here.

How the values were obtained:
[1] = tested on: patients with gout with an inadequate response to allopurinol; conditions: for Patients with gout flares requiring treatment in a month: colchicine prophylaxis
[2] = tested on: Patients with Hyperuricemia and Gout; conditions: for Subjects who required treatment for at least one gout flare: first 8 weeks, with gout flare prophylaxis

SMILES	Patients with gout flares requiring treatment in a month ([1]; 200 mg daily)	Flares per patient month (flare frequency) ([1]; 200 mg/day) [flares per patient month]	Time of efficacy (area under curve of mean sUA levels over time) ([1]; 200 mg/day)	Patients with gout flares requiring treatment in a month ([1]; 400 mg daily)	Flares per patient month (flare frequency) ([1]; 400 mg/day) [flares per patient month]	Time of efficacy (area under curve of mean sUA levels over time) ([1]; 400 mg/day)	Patients with gout flares requiring treatment in a month ([1]; 600 mg daily)	Flares per patient month (flare frequency) ([1]; 600 mg/day) [flares per patient month]	Time of efficacy (area under curve of mean sUA levels over time) ([1]; 600 mg/day)	Flares per patient month (flare frequency) ([2]; 80 mg/day) [flares per patient month]	Subjects who required treatment for at least one gout flare ([2]; 80 mg/day)	Flares per patient month (flare frequency) ([2]; 80 mg/day, listed as febuxostat)	Flares per patient month (flare frequency) ([2]; 120 mg/day) [flares per patient month]	Subjects who required treatment for at least one gout flare ([2]; 120 mg/day)	Flares per patient month (flare frequency) ([2]; 120 mg/day, listed as febuxostat) [flares per patient month]
O=C(O)CSc1nnc(Br)n1-c1ccc(C2CC2)c2ccccc12 [Lesinurad, lesinurad]	10 out of 46	0.22	158.5	13 out of 42	0.31	165.8	15 out of 48	0.31	167.5						
Cc1nc(-c2ccc(OCC(C)C)c(C#N)c2)sc1C(=O)O [Febuxostat, febuxostat]										0.22	55 out of 255	at least 0.22 flares per patient month	0.36	90 out of 250	≥ 0.36
